Measurements reported in PMC4412257, “2′,6′-Dimethylphenylalanine: A Useful Aromatic Amino Acid Surrogate for Tyr or Phe Residue in Opioid Peptides” (International Journal of Medicinal Chemistry, 2012).
Read-outs that look alike come from different tables or passages of the source.

Experiments:
[1] = tested on: mice; set-up: method as in PMID 12657261; settings: formalin test in mice, subcutaneous injection, cited from earlier work
[2] = target: κ-opioid receptor; set-up: method as in PMID 16321540; settings: guinea pig brain homogenate; read-out: IC50 ± SEM, opioid receptor, [3H]U-69593 (κ); cited from earlier work
[3] = target: δ-opioid receptor; settings: cited from earlier work; for Ki: versus [3H]DT, read-out: Receptor binding affinity, Ki ± S.E., δ
[4] = target: μ-opioid receptor; settings: cited from earlier work; for Ki: versus [3H]DAMGO, read-out: Receptor binding affinity, Ki ± S.E., μ
[5] = tested on: GPI (μ): guinea pig ileum, predominantly μ-receptors; settings: cited from earlier work
[6] = tested on: δ-opioid receptor; experiment: δ-opioid receptor binding, brain homogenate, versus [3H]DT; set-up: species or system rat; settings: ratio of Ki values
Experimental: The receptor-binding affinities of synthetic analogs were determined using rat brain, as previously reported [45].

[7] = target: MVD (δ): mouse vas deferens, δ-receptors; settings: cited from earlier work; for Ke of CTAP against the peptide, MVD: antagonist CTAP (μ); for Ke of CTAP against the peptide, MVD / Ke of N,N(Me)2Dmt-Tic-OH against the peptide, MVD: MVD assay; for Ke of N,N(Me)2Dmt-Tic-OH against the peptide, MVD: antagonist N,N(Me)2Dmt-Tic-OH (δ)
[8] = tested on: MVD (δ): mouse vas deferens, δ-receptors; experiment: isolated mouse vas deferens (MVD) assay; assay type: cell-based; settings: Table 1; ratio of IC50 values
Experimental: (§1) The receptor-binding affinities of synthetic analogs were determined using rat brain, as previously reported. […] The GPI tissue contains predominantly μ-receptors, while MVD tissue contains δ-receptors. […] In contrast, 11 was devoid of activity in both assays, as expected from the binding data. […] This analog turned out to be a potent μ-antagonist and a weak δ-antagonist. […] The results of 13 are in line with observations that Dmt-D-Phe-NH2 and its C-terminally extended analog are μ-receptor antagonists.

[9] = tested on: GPI (μ): guinea pig ileum, predominantly μ-receptors; experiment: isolated guinea pig ileum (GPI) assay; assay type: cell-based; settings: ratio of IC50 values
Experimental: as §1

[10] = tested on: μ-opioid receptor; experiment: μ-opioid receptor binding, brain homogenate, versus [3H]DAMGO; set-up: species or system rat; settings: ratio of Ki values
Experimental: as §1
Two methyl groups on Dmp^4 may interfere with the receptor interaction due to a reduction in conformational flexibility and/or enhanced lipophilicity. To further examine the usefulness of Dmp-containing DYN peptides as κ-opioid receptor ligands, the in vitro bioactivity of DYN peptides was determined using the GPI assay (Table 5).

In the case of `CN1CC[C@]23c4c5ccc(O)c4O[C@H]2[C@@H](O)C=C[C@H]3[C@H]1C5` [Morphine, reference compound], the “ED50, First phase” value ([1]; first phase) is listed as 3811 nmol/kg and the “ED50, Second phase” value ([1]; second phase) is listed as 7319 nmol/kg.
In the case of “Phe-Gly-Gly-Phe-Thr-Gly-Ala-Arg-Lys-Ser-Ala-Arg-Lys-Leu-Ala-Asn-Gln [NOC, reference compound]”, the IC50 [2] is listed as 643 ± 218 nM, the IC50 ([3]; rat brain homogenate, read-out: IC50 ± SEM, opioid receptor, [3H]DT (δ)) is listed as over 10000 nM and the IC50 ([4]; rat brain homogenate, read-out: IC50 ± SEM, opioid receptor, [3H]DAMGO (μ)) is listed as 1540 ± 601 nM.
For “Tyr-D-Ala-Phe-Glu-Val-Val-Gly-NH2 [DT, reference compound]”, the IC50 ([5]; Table 1) is listed as 5440 ± 812 nM, the IC50 ([5]; Table 6) is listed as 5440 ± 812 nM and the μ/δ ([6]; Table 1) is listed as 13894. For the same compound, the Ki ([3]; Table 1, rat brain) was 0.0226 ± 0.0077 nM, the Ki ([3]; Table 6) was 0.0226 ± 0.0077 nM and the Ki ([4]; Table 1, rat brain) was 314 ± 53 nM. The Ki ([4]; Table 6) was 314 ± 53 nM, the IC50 ([7]; Table 1) was 0.582 ± 0.029 nM and the IC50 ([7]; Table 6) was 0.582 ± 0.029 nM. For the same compound, the “Ke of CTAP against the peptide, MVD” value [7] was over 1000 nM, the “Ke of N,N(Me)2Dmt-Tic-OH against the peptide, MVD” value [7] was 0.64 nM and the GPI/MVD [8] was 9342.
In the case of “Tyr-D-Ala-Phe-Gly-Tyr-Pro-Ser-NH2 [DM, reference compound]”, the MVD/GPI ([9]; Table 1) is given as 9.2, the IC50 ([5]; Table 1) is given as 3.74 ± 0.57 nM and the Ki ([3]; Table 1, rat brain) is given as 192 ± 51 nM. For the same compound, the δ/μ ([10]; Table 1) was 2087, the Ki ([4]; Table 1, rat brain) was 0.092 ± 0.024 nM and the IC50 ([7]; Table 1) was 34.4 ± 4.8 nM.
In the case of “Tyr-Gly-Gly-Phe-Leu [ENK, reference compound]”, the IC50 ([5]; Table 1) is given as 103 ± 30 nM, the IC50 ([5]; Table 6) is given as 103 ± 30 nM and the IC50 ([7]; Table 1) is given as 22.2 ± 4.3 nM. The IC50 ([7]; Table 6) was 22.2 ± 4.3 nM.
In the case of [D-Dmp^1]EM2 [compound 39], the IC50 ([5]; Table 6) is given as 1390 ± 221 nM, the Ki ([3]; Table 6) is given as 9710 ± 3820 nM and the δ/μ ([10]; Table 6) is given as 241. For the same compound, the Ki ([4]; Table 6) was 40.4 ± 2.6 nM and the IC50 ([7]; Table 6) was 2330 ± 943 nM.
For [D-Dmp^1]YRFB [compound 41], the MVD/GPI ([9]; Table 6) is listed as 4.6, the IC50 ([5]; Table 6) is listed as 320 ± 30 nM and the Ki ([3]; Table 6) is listed as over 2820 nM. For the same compound, the δ/μ ([10]; Table 6) was over 370, the Ki ([4]; Table 6) was 7.62 ± 1.75 nM and the IC50 ([7]; Table 6) was 1470 ± 283 nM.
In the case of [D-Dmp^3]DM [compound 19], the MVD/GPI ([9]; Table 1) is listed as 8.1, the IC50 ([5]; Table 1) is listed as 44.4 ± 6.1 nM and the Ki ([3]; Table 1, rat brain) is listed as 3300 ± 702 nM. The δ/μ ([10]; Table 1) was 745, the Ki ([4]; Table 1, rat brain) was 4.43 ± 1.85 nM and the IC50 ([7]; Table 1) was 358 ± 45 nM.
For [D-Dmp^3]DT [compound 21], the IC50 ([5]; Table 1) is listed as 8210 ± 872 nM, the μ/δ ([6]; Table 1) is listed as 18 and the Ki ([3]; Table 1, rat brain) is listed as 111 ± 17 nM. The Ki ([4]; Table 1, rat brain) was 1960 ± 177 nM, the IC50 ([7]; Table 1) was 145 ± 15 nM and the GPI/MVD [8] was 56.
For [D-Dmp^3]EM2 [compound 15], the MVD/GPI ([9]; Table 1) is listed as 6.15, the IC50 ([5]; Table 1) is listed as 30.4 ± 2.8 nM and the Ki ([3]; Table 1, rat brain) is listed as 4170 ± 954 nM. For the same compound, the δ/μ ([10]; Table 1) was 1737, the Ki ([4]; Table 1, rat brain) was 2.4 ± 0.56 nM and the IC50 ([7]; Table 1) was 187 ± 30 nM.
In the case of [D-Dmp^3]YRFB [compound 23], the MVD/GPI ([9]; Table 1) is given as 15.4, the IC50 ([5]; Table 1) is given as 19.8 ± 1.9 nM and the Ki ([3]; Table 1, rat brain) is given as over 2820 nM. The δ/μ ([10]; Table 1) was over 45679, the Ki ([4]; Table 1, rat brain) was 0.0618 ± 0.0109 nM and the IC50 ([7]; Table 1) was 305 ± 53 nM.
In the case of [D-Dmp^4]EM2 [compound 17], the MVD/GPI ([9]; Table 1) is given as 3.86, the IC50 ([5]; Table 1) is given as 587 ± 119 nM and the Ki ([3]; Table 1, rat brain) is given as 1760 ± 834 nM. The δ/μ ([10]; Table 1) was 17, the Ki ([4]; Table 1, rat brain) was 106 ± 20 nM and the IC50 ([7]; Table 1) was 2270 ± 603 nM.
For [D-Dmp^4]ENK [compound 11], the IC50 ([5]; Table 1) is given as over 10000 nM, the μ/δ ([6]; Table 1) is given as 0.28 and the Ki ([3]; Table 1, rat brain) is given as 8920 ± 4100 nM. For the same compound, the Ki ([4]; Table 1, rat brain) was 2500 ± 169 nM and the IC50 ([7]; Table 1) was over 10000 nM.
In the case of [D-Dmp^l]DT [compound 35], the IC50 ([5]; Table 6) is listed as over 10000 nM, the Ki ([3]; Table 6) is listed as 1390 ± 495 nM and the Ki ([4]; Table 6) is listed as over 2180 nM. The IC50 ([7]; Table 6) was 662 ± 147 nM.
In the case of [Dmp^1,3]YRFB [compound 25], the MVD/GPI ([9]; Table 6) is listed as 18.2, the IC50 ([5]; Table 6) is listed as 2.76 ± 0.56 nM and the “Ke of CTAP against the peptide, GPI” value ([5]; antagonist CTAP (μ), GPI assay) is listed as 21.3 nM. The Ki ([3]; Table 6) was 1690 ± 458 nM, the δ/μ ([10]; Table 6) was 78148 and the Ki ([4]; Table 6) was 0.0216 ± 0.0062 nM. For the same compound, the “Ke of CTAP against the peptide, MVD” value [7] was 10.2 nM and the “Ke of N,N(Me)2Dmt-Tic-OH against the peptide, MVD” value [7] was over 1000 nM.
For [Dmp^1]DT [compound 34], the IC50 ([5]; Table 6) is given as 4040 ± 1120 nM, the μ/δ ([6]; Table 6) is given as 475 and the Ki ([3]; Table 6) is given as 0.329 ± 0.077 nM. The Ki ([4]; Table 6) was 156 ± 33 nM and the IC50 ([7]; Table 6) was 0.272 ± 0.054 nM.
For [Dmp^1]EM2 [compound 38], the MVD/GPI ([9]; Table 6) is given as 8.61, the IC50 ([5]; Table 6) is given as 76.9 ± 20.7 nM and the Ki ([3]; Table 6) is given as 6760 ± 590 nM. For the same compound, the δ/μ ([10]; Table 6) was 2727, the Ki ([4]; Table 6) was 2.48 ± 1.46 nM and the IC50 ([7]; Table 6) was 661 ± 316 nM.
